We go through two compounds from patent US20070157931A1, “System and method for optimized delivery of an aerosol to the respiratory tract” (priority 2005, published 2007).

Structures are written as SMILES.

What all share (assay type): in vivo
One data set has as its system anesthetized sheep. Description: Bronchoconstriction produced by sodium arachidonate aerosol in anesthetized ventilated sheep. To be noted: aerosolized, dose 1.5 grams/50 ml typically diluted 1:3. The protocol: In anesthetized sheep with either normal lung mechanics or during bronchoconstriction, the effects of phasic aerosol delivery on the amount of radioisotope deposited in the lungs and the amount expired (as collected in a waste filter) were tested. Results were compared to those in which aerosol was delivered continuously. Sheep were anesthetized and ventilated with oxygen-enriched air at a tidal volume of 500 ml and a respiratory rate of 10 breaths per minute. The ventilator setup is illustrated schematically in FIG. 15.
FIGS. 16-18 also illustrate effects of bronchoconstriction produced by an aerosol of sodium arachidonate on aerosol delivery efficiency. These studies were conducted after the control studies discussed above. Arachidonic acid was converted to sodium arachidonate by the procedure of Ogletree and Brigham and was aerosolized (Dose=1.5 grams/50 ml typically diluted 1:3) to cause marked bronchoconstriction and/or decreased lung compliance and thus elevated airway pressure. […] During bronchoconstriction, ^99mTc-DTPA was administered by phasic aerosol delivery while maintaining the arachidonate delivery. […]

A short description of data set [1]: Wasted fraction of continuously delivered radioaerosol in ventilated sheep, expiratory filter gamma counting. The note with it: continuous zero flow nebulizer. As for the experimental part: This study was designed to compare the wasted fraction of ^99mTc-DTPA aerosols delivered continuously with the zero flow nebulizer to control sheep (n=6) and sheep administered 2 mg/kg E. coli endotoxin. This dose of endotoxin in sheep causes a period of intense bronchoconstriction and pulmonary vasoconstriction followed by pulmonary edema. The experimental setup was similar to that illustrated in FIG. 15, except that no scintillation probe was used and isotope waste was measured by counting radioactivity in a filter placed in the expiratory portion of the ventilator tubing using a gamma energy counter. The wasted fraction of aerosol was more than 3-fold higher during endotoxin-induced lung injury with endotoxin [3,836,141 (n=1)] than when the lungs were normal [1,289,102±125,326 (n=6)].

Data set [2] is described as follows: Aerosol deposition and clearance of radiotracers in lungs of ventilated sheep (Hawkeye imaging, gamma counting of lung tissue). The note with it: Hi-Flo MiniHeart nebulizer.
Protocol: The present study was designed to assess aerosol deposition patterns using jet nebulizers and the device of the present disclosure. These studies were conducted in the Vanderbilt University Medical Center Hawkeye scanning facility. Each sheep was surgically instrumented with catheters in a jugular vein and a carotid artery. After allowing several days for the sheep to recuperate from surgery, they were anesthetized, intubated, ventilated, and placed on the GE Hawkeye scanner bed. […] The contents of the syringe were then added to a nebulizer and aerosols generated for 30 minutes during ventilator-assisted inspiration. Planar images were taken every two minutes with anterior and posterior cameras. Nebulization was then halted, and clearance of the radiotracers over two hours was measured with Hawkeye in an identical manner. At the end of the radioisotope clearance image acquisition, a rotational CT image was taken of the sheep thoracic cavity to delineate lung boundaries and chest anatomy. The sheep was sacrificed and its lungs excised. Lungs were placed on grid paper and diced with a rectangular cutting grid. Lung tissue was placed in plastic vials and gamma energy emissions of each isotope measured with a gamma counter.

Turning to `CCCCC/C=C\C/C=C\C/C=C\C/C=C\CCCC(=O)[O-].[Na+]` [sodium arachidonate], the hypoxemia during bronchoconstriction entry with anesthetized sheep was “marked hypoxemia”. Besides, the “airway pressure during bronchoconstriction” value in the data set on anesthetized sheep (within 20 minutes) is reported as 48-50 cm H2O.

Take `O=C([O-])CN(CCN(CC(=O)[O-])CC(=O)[O-])CCN(CC(=O)[O-])CC(=O)[O-].[99Tc+4]` [99mTc-DTPA]: the “wasted fraction, endotoxin-induced lung injury versus normal lungs” value in data set [1] is reported as “more than 3 fold”. Moreover, the “wasted fraction of aerosol (radioactivity in expiratory filter)” value is given as 3,836,141 in data set [1] (endotoxin-induced lung injury, 2 mg/kg E. coli endotoxin, n=1) and 1,289,102±125,326 in data set [1] (normal lungs, control sheep, n=6). Besides, the “tracer remaining in lungs after halting aerosol generation” value in data set [2] (2 hours after halting aerosol generation) is “much of the tracer remained”. For the same compound, the “radioisotope distribution in lung tissue” value in data set [2] (gamma counting of lung tissue samples) was “higher dorsal (towards back) and caudal (towards tail) deposition”.
